The record followed here is patent publication US20240398981A1, “NOVEL NANOPARTICLES OF ANTIRETROVIRAL DRUGS, THEIR PREPARATION AND THEIR USE FOR THE TREATMENT OF VIRAL INFECTIONS” (CENTRE NATIONAL DE LA RECHERCHE SCIENTIFIQUE, priority 2018, published 2024).

The test system of experiment [1] is HIV-1. The settings on record: DCs infected, then treated with increasing concentrations, T cells added, 6 days.
Protocol: The question of the impact of NP on HIV-1 transmission from DCs to autologous T cells was addressed. DCs were first infected with HIV-1, then incubated with increasing concentrations of AZT derivatives before T cells were added.
To assess the transmission of HIV-1 from DCs to autologous T-cells, DCs were incubated into 96-well culture plates (1×10^5 cells/well) and infected with HIV-1 (1 ng p24 antigen) for 3 h at 37° C. in a 5% CO2 atmosphere. Following four washes, DCs were shortly incubated with increasing concentrations of indicated molecules or AZT (2 μM), and autologous stimulated T cells were added onto HIV-exposed DCs at DC: T-cell ratio of 1:5. Cells were cultured for 6 days. Each sample was performed in triplicate. Culture supernatants were harvested every 3 days and fresh medium with compounds was added. Supernatants were inactivated with 1% Triton X-100 and frozen at −20° C. Viral production by T lymphocytes was evaluated at the sixth day of the co-culture by measurement of p24 antigen in supernatants using capture ELISA.
Experiment [2] has as its system HIV-1BaL. The experiment can be described thus: Inhibition of HIV-1 infection in monocyte-derived macrophages. The format is cell-based. The settings on record: six days of culture, p24 in supernatants, dose-dependent. The method, then: (§1) FIG. 3 represents the inhibition of HIV-1 replication in AZT-NP-treated macrophages. Monocyte-derived macrophages were infected with CCR5-tropic HIV-1Ba-L for 3 h. After several washes, increasing concentrations of AZT derivatives were added to infected macrophages for 6 days of culture. The level of virus replication was monitored in culture supernatants by the p24 antigen capture ELISA. The infection inhibition is expressed as percentage of the average of three independent experiments (A). The frequency of infected cells was determined by flow cytometry after a costaining of macrophages with mAbs anti-CD206 (a marker of macrophages) and mAbs anti-p24 which target intracellular HIV-1 (B). Addition of AZT derivatives was followed by the increase of the size of macrophages as assessed by the Forward-Scattered light parameter (FSC) in flow cytometry (C). […] Using flow cytometry, the expression of the two HIV-1 coreceptors CCR5 (E) and CXCR4 (F) was determined at the surface of AZT derivatives-treated macrophages.
After 6 days of activation or differentiation, cells were washed twice and seeded into 96-well culture plates ([…]). […] The level of virus replication was monitored by HIV-1 p24 antigen ELISA.
Following six days of infection, the frequency of HIV-1-infected cells was determined by flow cytometry to detect intracellular HIV-1 p24 molecule. […]

In experiment [3] the test system is CCR5. The experiment can be described thus: Surface expression of HIV-1 coreceptor on treated macrophages (flow cytometry). The format is cell-based, human. The method, then:
as §1
Following six days of infection, the frequency of HIV-1-infected cells was determined by flow cytometry to detect intracellular HIV-1 p24 molecule. […] Stained cells were immediately acquired on a FACScalibur (Becton Dickinson) and analyzed with FlowJo software.

Experiment [4] concerns J774A.1 mouse macrophages. Nature of the experiment: [3H]-AZT-TP cellular uptake. The format is cell-based. The settings on record: J774A.1 cells, up to 8 hour exposure. As to the method: Nanoparticles containing [methyl-^3H]-AZT-TP were prepared and purified as described above then diluted 1:10 in cell culture medium (in order to maintain cell viability above 80% as determined by MTT tests), so to have 70 nCi/well. A control solution of AZT-TP at the same final radioactivity concentration was used for comparison.
Cells were recovered from the culture flasks, counted and seeded in 6-well plates, at a surface density of 800,000 cells/well for J774A.1 and 160,000 for THP-1 using 2 mL medium per well. After 24 h incubation, the medium was withdrawn and 2 mL of AZT-TP nanoparticles or free AZT-TP were added in each well. Nanoparticles and AZT-TP were incubated with cells for 2 and 8 hours, after which the uptake was stopped by removing the cell culture medium. The cells were washed twice with PBS (Lonza) to remove loosely bound compounds and then lysed with 1 mL Solvable (Perkin-Elmer, France). The radioactivity of the supernatant medium, the washing supernatants and the cell lysate were counted. The uptake kinetics of nanoparticle AZT-TP was studied for 2 and 8 hours and compared to that of free AZT-TP.

`Cc1cn([C@H]2C[C@H](N=[N+]=[N-])[C@@H](CO)O2)c(=O)[nH]c1=O` [AZT, zidovudine]: the “production of HIV-1 after transmission from DCs to autologous T cells” value in experiment [1] is “inhibited”. The “production of HIV-1 by macrophages” value in experiment [2] was “inhibited”. Also, the “expression of HIV-1 coreceptor CCR5 at macrophage surface” value in experiment [3] is “did not interfere”.
As for `Cc1cn([C@H]2C[C@H](N=[N+]=[N-])[C@@H](COP(=O)(O)OP(=O)(O)OP(=O)(O)O)O2)c(=O)[nH]c1=O` [AZT-TP], the AZT-TP uptake result in experiment [4] is “around 3 nmol per million cells”. Besides, the “production of HIV-1 after transmission from DCs to autologous T cells” value in experiment [1] was “inhibited”. In addition, the “production of HIV-1 by macrophages” value in experiment [2] is “inhibited”. Further, in experiment [3], the “expression of HIV-1 coreceptor CCR5 at macrophage surface” value is listed as “did not interfere”.
